“Also recorded” adds a separate entry of the source.
Tests used:
[1] = system: SKMG3 cells; experiment: Radiation clonogenic survival assay; type: cell-based, human
Protocol: (§1) Radiation (XRT) doses of either 0, 2, 4, or 6 Gy were delivered with a Precision X-ray 320-kV orthovoltage unit at a dose rate of 2 Gy/45 seconds (PXI X-Ray Systems). Twenty-four hours following XRT cells were washed, trypsinized, and re-plated in triplicate wells to determine clonogenic survival. […] Growth rates were determined by CellTiter 96 Non-Radioactive Cell Proliferation Assay (Promega; Madison, Wis., USA) according to the manufacturer's directions. For each experiment one thousand cells were seeded in triplicate wells in 96-wells plates. The following day, cell cultures were treated with NGI-1 (1 μM), Temozolomide (TMZ, 10 μM), Etoposide (VP-16, 0.1 μM) or combinations for 5 days. Absorbance at 540 nm was measured using the spectrophotometric reading (BioTek Synergy 2; Winooski, Vt. USA).

[2] = system: H3255; settings: Lopez-Sambrooks et al., Nat Chem Biol. 2016; cited from earlier work
[3] = system: CD8-EGFR; experiment: Western blot of CD8-EGFR phosphorylation in SKMG3-CD8-EGFR cells; type: cell-based, human; settings: SKMG3 cells with stable expression of the CD8-EGFR
Protocol: The CD8 cDNA was a gift from Paula Kavathas (Yale University). The CD8-EGFR was constructed according to a strategy that generated a constitutively active IGF-1R (24). The extracellular domain of CD8 was PCR amplified with a 5′ XbaI and 3′ SalI restriction site and cloned in-frame with the intracellular kinase domain of EGFR using the pDCB5-EGFR plasmid. SKMG3-CD8-EGFR cells were generated by Lipofectamine (Life Technologies) transfection of the plasmid followed by selection with 500 μg/ml G418.

[4] = system: PC9-GR1; experiment: Cell cycle distribution by flow cytometry; type: cell-based; settings: NGI-1 for 24 h, printed 60% vs 40%
Protocol: (§2) For the assessment of cell cycle distribution, 1×10^6 cells were collected, washed once with ice-cold PBS and fixed in ice-cold 70% ethanol overnight at −20° C. Thereafter, cells were washed twice with PBS and incubated for 30 min at room temperature in 200 μL of Guava Cell Cycle Reagent (Guava Technologies). Cytofluorometric acquisitions were performed on a LSRII cytometer (BD Biosciences). First-line analysis was performed with Flow Jo software, upon gating of the events characterized by normal forward and side scatter parameters and discrimination of doublets in a FSC-A vs. FSC-H bivariate plot. Approximately 30,000 cells were analyzed per experiment, and the mean value was obtained from 3 independent assays.

[5] = system: HCC-827-GR cells; experiment: Cell cycle distribution by flow cytometry; type: cell-based; settings: NGI-1 for 24 h, printed 75% vs 45%
Protocol: as §2

[6] = system: H1975; experiment: Cell cycle distribution by flow cytometry; type: cell-based; settings: NGI-1 for 24 h, printed 40% vs 60%, higher value taken as NGI-1
Protocol: as §2

[7] = system: PC9-GR2; experiment: Cell cycle distribution by flow cytometry; type: cell-based; settings: NGI-1 for 24 h, printed 80% vs 60%
Protocol: as §2

[8] = Solubility; type: physicochemical
[9] = system: D54, SKMG3, T98G or U251 cells; experiment: Glioma cell proliferation (CellTiter 96), NGI-1 alone or with cytotoxic chemotherapy; type: cell-based
Protocol: as §1

[10] = system: T98G cells; experiment: Phospho-γH2AX foci formation after radiation; type: cell-based; settings: 2 hours after 4 Gy, 10 μM NGI-1
Protocol: (§3) To determine histone H2AX phosphorylation (γH2AX), cells were cultured on glass cover slips and pre-treated with either vehicle or NGI-1 for 48 hours followed by radiation treatment. Samples were fixed with 4% neutral-buffered formaldehyde, washed (0.1% triton in PBS for 30 minutes) and incubated for 1 hour with protein-blocking solution (PBS containing 10% normal goat-horse serum; Sigma-Aldrich, Saint Louis, Mich., US). Next, the slides were incubated with primary anti-phospho-histone γH2AX S139 (1:500, Millipore-Upstate, Billerica, Mass., US) followed by incubation with secondary antibody Alexa Fluor 555-conjugated goat anti-mouse IgG (1:750, Molecular probes/Invitrogen, Carlsbad, Calif., US), for 1 hour at room temperature. Nuclei were stained using DAPI containing vectashield mounting solution (Vector Labs). Confocal cellular images were captured with an inverted Zeiss LSM 510 Pascal laser confocal microscope (C. Zeiss, Jenna, Germany), using a 63/1.4 plan-apochromat objective. Five randomly selected fields s per slide were analyzed. Cells were counted using the ImageJ program, public domain Java image processing software.

[11] = system: D54 cells; experiment: Phospho-γH2AX foci formation after radiation; type: cell-based
Protocol: as §3

[12] = system: U251 cells; experiment: Phospho-γH2AX foci formation after radiation; type: cell-based; settings: 2 hours after 4 Gy, 10 μM NGI-1
Protocol: as §3

[13] = biological target: T1, EGFR (Homo sapiens, UniProt P00533, DEL746-750); type: cell-based; settings: HCC827-GR cells
T1 construct: endogenous in cells; host or cells: HCC827-GR NSCLC cells (MET amplified)
Protocol: Immunoprecipitation of EGFR was performed on whole cell lysate of intact HCC827 and HCC827-GR cell monolayers using Protein A magnetic beads (Cell Signaling) to isolate EGFR coupled to rabbit anti-EGFR (1:100) antibody from Cell Signaling (Danvers, Mass., USA). Equilibrated Protein A magnetic beads equilibrated with a whole cell lysate were used as negative controls for non-specific protein binding. […] The nitrocellulose-bound primary antibodies, were detected with anti-rabbit IgG horseradish peroxidase-linked antibody or anti-mouse IgG horseradish peroxidase-linked antibody (EMD Millipore; Temecula, Calif. USA), and were detected by the enhanced chemoluminescence staining ECL (GE Healthcare-Amersham Pharmacia, Buckinghamshire, U.K.).

[14] = system: T98G cells; experiment: Radiation clonogenic survival assay; type: cell-based; settings: 10 μM NGI-1
Protocol: as §1

[15] = system: D54 cells; experiment: Radiation clonogenic survival assay; type: cell-based
Protocol: as §1

[16] = system: U251 cells; experiment: Radiation clonogenic survival assay; type: cell-based; settings: 10 μM NGI-1
Protocol: as §1

[17] = system: parental PC9 cells; experiment: Apoptosis by Annexin V flow cytometry; type: cell-based; settings: NGI-1 10 μM, 48 h
Protocol: (§4) Briefly, 1×10^6 cells/sample were collected, washed in PBS, pelleted, and resuspended in incubation buffer (10 mm HEPES/NaOH, pH 7.4, 140 mm NaCl, 2.5 mm CaCl2) containing 1% annexin V and 1% 7-Amino-actinomycin D or propidium iodide, to identify dead cells. […] First-line analysis was performed with Flow Jo software. Approximately 50,000 cells were analyzed per experiment, and the mean value was obtained from 3 independent assays.

[18] = system: PC9-GR cells; experiment: Apoptosis by Annexin V flow cytometry; type: cell-based; settings: NGI-1 treatment alone
Protocol: as §4

Cc1cnc(NC(=O)c2cc(S(=O)(=O)N(C)C)ccc2N2CCCC2)s1 [NGI-1, 5-(dimethylsulfamoyl)-N-(5-methyl-1,3-thiazol-2-yl)-2-(pyrrolidin-1-yl)benzamide]
dose enhancement factor (DEF) at a surviving fraction of 0.4 ([1]; 10 μM NGI-1): 1.2 | survival fraction at 2 Gy (SF2Gy) ([1]; 10 μM NGI-1 48 hours before radiation, 87% without NGI-1): 77% | H3255 proliferation [2]: significantly inhibits | CD8-EGFR phosphorylation (phospho-Y1068, phospho-Y845) [3]: resistant | cells in G1 (G1 arrest) [4]: 60% | cells in G1 (G1 arrest) [5]: 75% | cells in G1 (G1 arrest) [6]: 60% | cells in G1 (G1 arrest) [7]: 80% | solubility [8]: low solubility; also recorded: solubility remains a significant challenge | glioma cell line proliferation, dose response ([9]; D54, SKMG3, U251 and T98G, 5 days of drug exposure): sensitive | proliferation, NGI-1 combined with TMZ or VP-16 ([9]; D54 and SKMG3, NGI-1 1 μM with TMZ 10 μM or VP-16 0.1 μM, 5 days, not synergistic): further reduced glioma cell proliferation | enhancement of the anti-proliferative effects of TMZ or VP-16 ([9]; T98G or U251 cells, NGI-1 1 μM, 5 days): did not enhance | enhancement of phospho-γH2AX foci formation [10]: no enhancement | increase of phospho-γH2AX foci formation, time course ([11]; 4 Gy + 10 μM NGI-1, radiation alone 6.4-fold): 8.6 fold | increase of phospho-γH2AX foci formation compared to radiation alone (factor) ([11]; 2 hours after 4 Gy, 10 μM NGI-1): 1.3 | enhancement of phospho-γH2AX foci formation [12]: no enhancement | EGFR phosphorylation [13]: significantly reduced | effect on SF2Gy [14]: unaffected | dose enhancement factor (DEF) at a surviving fraction of 0.4 ([15]; 10 μM NGI-1): 1.3 | survival fraction at 2 Gy (SF2Gy) ([15]; 10 μM NGI-1 48 hours before radiation, 69% without NGI-1): 51% | effect on SF2Gy [16]: unaffected | induction of apoptosis [17]: does not induce apoptosis | induction of apoptosis [18]: no pro-apoptotic effect

From US10765638B2, “Particle formulation with polycation complex” (Yale University, priority 2017, dated 2020)
